# Experimental data reported in patent US12440495B2, “Combination therapy for treatment of myeloproliferative neoplasms” (Incyte Corporation, priority 2020, dated 2025).
# Like-named read-outs stand apart in the source and are kept apart here.
# Assays:
# [1] = system: cMyc, a BRD4 target gene, in KMS12BM cells; experiment: Ex vivo pharmacodynamic spiked cell assay, cMyc protein in KMS12BM cells in participant plasma; type: cell-based, human; settings: for inhibition of cMyc at trough: Cycle 1 Day 8 predose; for average cMyc inhibition at steady state: Day 8, predose to 8 hours
# Procedure: Pharmacodynamic analysis was performed using an ex vivo assay measuring protein levels of cMyc, a BRD4 target gene, in KMS12BM cells, which were spiked into participant plasma samples collected at predose and various postdose timepoints. […] The average cMyc inhibition at steady state (Day 8, from predose to 8 hours) was 30%, 44%, and 65% for the dose of 8 mg (n=11), 12 mg (n=51), and 16 mg (n=7), respectively. […] Inhibition of cMyc was reduced to <10% at trough (Cycle 1 Day 8 predose) in the 8-mg and 12-mg cohorts and ˜30% in the 16-mg cohort.
# [2] = system: SET-2 cells; experiment: SET-2 xenograft model
# [3] = system: myelofibrosis; experiment: Clinical efficacy in myelofibrosis participants (NCT04279847); type: in vivo, human
# Procedure: This is a Phase 1, open-label, 2-part study of Compound 1 as monotherapy in participants with relapsed or refractory myelofibrosis (for further details see “Safety and Tolerability Study of INCB057643 in Participants With Myelofibrosis”, ClinicalTrials.gov Identifier: NCT04279847, which is incorporated herein by reference in its entirety). INCB057643 is also referred to as Compound 1 in the present disclosure. […] Participants will receive 4 mg QD of Compound 1 on a continuous basis.
# A first participant and a second participant had relapsed myelofibrosis which was treated with Compound 1 monotherapy. A third participant was being treated with single-agent ruxolitinib but having suboptimal responses.
# [4] = system: MPLW515L expressing bone marrow; experiment: MPLW515L mouse model of MPN; settings: Compound 1 10 mg/kg QD
# [5] = system: HEL cells; experiment: JAK2 V617F expressing HEL xenograft model of erythroleukemia; type: in vivo; settings: 14 days
# Procedure: For efficacy studies, measurements of tumors were taken every 2 to 3 days using a digital caliper. Tumor volumes were calculated using the formula: Volume=(length×width2)/2 where width was the smaller dimension. Body weights were also monitored.
# Animals were sacrificed (1) at end of study, (2) if tumor size reached 10% of total body weight, or (3) if 20% of body weight is lost.
# Statistical analyses were performed using Prism Graphpad software. All comparisons were done using 2-way ANOVA with p<0.05 deemed significant.
# Female SCID mice were subcutaneously inoculated with 10^7 HEL cells in matrigel. When tumors reached approximately 160 mm^3, mice (n=10 per group) were dosed orally with Compound 1 for 14 days as follows: • 1. BID at either 1 or 3 mg/kg, or vehicle control • 2. QD at 3, 10, or 30 mg/kg
# [6] = Clinical pharmacokinetics of Compound 1 monotherapy, Phase 1/2, advanced malignancies; type: in vivo, human
# Procedure: The clinical PK of Compound 1 in participants with advanced malignancies (solid and hematologic malignancies) were evaluated in a Phase 1/2, open-label, dose-escalation/dose-expansion, safety and tolerability study. Participants received continuous QD doses of Compound 1. As of the data cutoff date (23 Sep. 2019), 25, 101, and 8 participants who received 8 mg, 12 mg, and 16 mg, respectively, across Part 1 and Part 2 (Compound 1 treated as monotherapy) have been assessed for PK. The PK parameters of parent Compound 1 are summarized in Table 2 and Table 3 (see FIG. 5). Table 2 presents a summary of Compound 1 pharmacokinetic parameters for Compound 1 as monotherapy (part 1 and 2) at cycle 1 day 1. Table 3 presents a summary of Compound 1 pharmacokinetic parameters for Compound 1 as monotherapy (part 1 and 2) at steady-state (cycle 1 day 8).
# Blood samples for the determination of plasma concentrations of Compound 1 in Parts 1 and 2 were collected at predose on Cycle 1 Day 1, Cycle 1 Day 2, and Cycle 1 Day 8, and at 0.5, 1, 2, 4, 6, and 8 hours on Cycle 1 Day 1 and Cycle 1 Day 8. The plasma samples of Compound 1 were assayed by a validated LC-MS/MS method.
# [7] = ruxolitinib 60 mg/kg BID, or both, oral, 14 days
# [8] = ruxolitinib 60 mg/kg BID, combination
structure (smiles),measurement,setting,value
"CN1C(=O)C(C)(C)Oc2c(-c3cn(C)c(=O)c4[nH]ccc34)cc(S(C)(=O)=O)cc21 [Compound 1, 2,2,4-trimethyl-8-(6-methyl-7-oxo-6,7-dihydro-1H-pyrrolo[2,3-c]pyridin-4-yl)-6-(methylsulfonyl)-2H-1,4-benzoxazin-3(4H)-one]",inhibition of cMyc at trough,[1]; 8 mg,< 10%
same,average cMyc inhibition at steady state,"[1]; 8 mg, n=11",30%
same,inhibition of cMyc at trough,[1]; 12 mg,< 10%
same,average cMyc inhibition at steady state,"[1]; 12 mg, n=51",44%
same,inhibition of cMyc at trough,[1]; 16 mg,~30%
same,average cMyc inhibition at steady state,"[1]; 16 mg, n=7",65%
same,IC50,"[1]; Homo sapiens, KMS-12-BM, 70 participants, nonlinear regression, plasma concentration, read-out: IC50 (ex vivo, composite PK PD curve)",202 nM
same,tumor growth inhibition,"[2]; ruxolitinib 30 mg/kg BID, Compound 1 10 mg/kg QD, or both, oral, 14 days",significantly inhibited tumor growth
same,"Fa (tumor growth inhibition level), SET-2","[2]; table head: ruxolitinib 60 mg/kg BID, Compound 1 10 mg/kg QD, combination",0.24
same,spleen length reduction by spleen palpation,"[3]; first participant, monotherapy 12 mg QD, nadir vs baseline",92.5%
same,clinical outcome,"[3]; second participant, monotherapy 8 mg QD, on study 24 days",only disease progression
same,spleen size,[4]; [7],able to reduce spleen size
same,white blood cell count,[4]; [7],able to slow the expansion of white blood cells
same,"Fa (fraction affected, change vs vehicle), MPL SPL",[4]; [8],0.5558
same,MPL SPL (sizes of the spleens),[4]; [8],0.3611 grams
same,tumor regression,[5]; 30 mg/kg QD oral,one statistical tumor regression
same,tolerability (body weight loss),"[5]; all doses, oral",All doses were tolerated
same,tumor growth (mean tumor volume) vs vehicle,"[5]; oral, 1 or 3 mg/kg BID, 3, 10 or 30 mg/kg QD, p<0.02 each group",inhibited tumor growth in a dose-related manner
same,"Tmax, median","[6]; 8 mg QD, cycle 1 day 1, N = 12",2.00 h
same,dose proportionality of steady-state Cmax and AUC0-24,[6]; 8 to 16 mg QD,proportional to dose
same,"steady-state oral clearance, geometric mean CLss/F",[6]; 8 to 16 mg QD,9.92 to 10.7 L/h
same,AUC(0-t),"[6]; human, plasma, oral, 2 mg, 2 mg QD, linear PK extrapolation from 12 mg QD, read-out: estimated steady-state AUC0-24",0.457 µM·h
same,AUC(0-t),"[6]; human, plasma, oral, 4 mg, 4 mg QD, linear PK extrapolation from 12 mg QD, read-out: estimated steady-state AUC0-24",0.913 µM·h
same,AUC(0-t),"[6]; human, plasma, oral, 8 mg, 8 mg QD, cycle 1 day 1, N = 12, read-out: AUClast, geometric mean (CV %)",2.09 µM·h
same,AUC(0-t),"[6]; human, plasma, oral, 8 mg, 8 mg QD, cycle 1 day 1, N = 12, read-out: AUClast, mean ± SD",2.31 ± 1.12 µM·h
same,Cmax,"[6]; human, plasma, oral, 8 mg, 8 mg QD, cycle 1 day 1, N = 12, read-out: Cmax, geometric mean (CV %)",188 nM
same,Cmax,"[6]; human, plasma, oral, 8 mg, 8 mg QD, cycle 1 day 1, N = 12, read-out: Cmax, mean ± SD",201 ± 83.6 nM
same,AUC(0-t),"[6]; human, plasma, oral, 12 mg, 12 mg QD, cycle 1 day 1, N = 99, read-out: AUClast, geometric mean (CV %)",2.55 µM·h
same,AUC(0-t),"[6]; human, plasma, oral, 12 mg, 12 mg QD, cycle 1 day 1, N = 99, read-out: AUClast, mean ± SD",2.74 ± 1.09 µM·h
same,Cmax,"[6]; human, plasma, oral, 12 mg, 12 mg QD, cycle 1 day 1, N = 99, read-out: Cmax, geometric mean (CV %)",249 nM
same,Cmax,"[6]; human, plasma, oral, 12 mg, 12 mg QD, cycle 1 day 1, N = 99, read-out: Cmax, mean ± SD",266 ± 94.7 nM
same,AUC(0-t),"[6]; human, plasma, oral, 12 mg, 12 mg QD, read-out: steady-state AUC0-24, geometric mean",2.74 µM·h
same,Cmax,"[6]; human, plasma, oral, 12 mg, 12 mg QD, read-out: steady-state Cmax, geometric mean",272 nM
same,AUC(0-t),"[6]; human, plasma, oral, 16 mg, 16 mg QD, cycle 1 day 1, N = 7, read-out: AUClast, geometric mean (CV %)",3.21 µM·h
same,AUC(0-t),"[6]; human, plasma, oral, 16 mg, 16 mg QD, cycle 1 day 1, N = 7, read-out: AUClast, mean ± SD",3.37 ± 1.06 µM·h
same,Cmax,"[6]; human, plasma, oral, 16 mg, 16 mg QD, cycle 1 day 1, N = 7, read-out: Cmax, geometric mean (CV %)",329 nM
same,Cmax,"[6]; human, plasma, oral, 16 mg, 16 mg QD, cycle 1 day 1, N = 7, read-out: Cmax, mean ± SD",343 ± 93.2 nM
same,Tmax,"[6]; human, plasma, oral, 12 mg QD, cycle 1 day 1, N = 99, read-out: Tmax, median",0.5 h
same,half-life,"[6]; human, plasma, oral, 12 mg QD, steady-state, read-out: t1/2, geometric mean (converted)",9.17 h
same,AUC,"[6]; human, plasma, oral, 16 mg QD, read-out: steady-state AUC, geometric mean",3.61 µM·h
same,Vd/F,"[6]; human, plasma, oral, 8 to 16 mg QD, read-out: volume of distribution, geometric mean Vz/F",138 to 197 L
same,Tmax,"[6]; human, plasma, oral, multiple-dose, fasted state, 8 to 16 mg QD, read-out: median Tmax",1 to 2 h
same,half-life,"[6]; human, plasma, oral, multiple-dose, not dose-dependent, read-out: steady-state geometric mean half-life (converted)",~10 h
same,accumulation of exposure (steady-state AUC0-24 vs first dose AUC0-24),[6]; once daily dosing,< 10%
same,time to steady-state (predicted),"[6]; once daily dosing, based on effective half-life of 10 hours",2 days
